Experimental data published in patent publication US10194662B2, “Carbamate compound and use thereof” (SUMITOMO CHEMICAL COMPANY, LIMITED, priority 2015, dated 2019).

What was measured:
[1] = test system: rice blast fungus (Magnaporthe grisea); type: in vivo; conditions: rice (Nipponbare), 500 ppm foliar spray, contact with infected seedling, 6 days
[2] = test system: wheat rust fungus (Puccinia recondita); test: Test Example 2: wheat rust, foliar spray preventive test; type: in vivo; conditions: wheat (Shirogane), 500 ppm foliar spray, inoculated 5 days after spraying, assessed after 1 + 8 days

Compound	lesion areas on treated plant relative to non-treated plant [1]	area of the lesion on treated plant relative to untreated plant [2]
COC(=O)Nc1cccc(C)c1COc1ccc(-c2nccc(C)n2)cc1C [Compound 2]	≤ 30%	–
COC(=O)Nc1ccccc1COc1ccc(-c2ncccn2)cc1 [methyl N-(2-{[4-(pyrimidine-2-yl)phenoxy)methyl}phenyl)carbamate]	–	≥ 70%
